Experimental data published in paper PMC10382589, “In vitro and in vivo antiplasmodial evaluation of sugar-modified nucleoside analogues” (Scientific Reports, 2023).
Read-outs that look alike come from different tables or passages of the source.

Tests used:
[1] = test system: Pf3D7 chloroquine-sensitive strain; test: SYBR green I based fluorescence growth inhibition assay, Pf3D7; format: cell-based, Plasmodium falciparum; details: for IC50: Plasmodium falciparum, chloroquine-sensitive strain, synchronized late trophozoite parasites, SYBR Green, triplicate, mean ± SD, read-out: IC50 (µM) against Pf3D7; for growth inhibition against Pf3D7 (in words): screen at 1 µM and 10 µM, vs untreated control (Fig. S1)
Protocol: Growth of one intraerythrocytic cycle of Pf was monitored after treated with compounds whereas untreated parasites were considered as control.
(§1) The percent growth inhibition of the parasites was evaluated by SYBR Green assay.
(§2) Pf3D7 and PfRKL-9 were cultured by following procedure reported by Trager and Jensen[33]. […] In order to examine the morphological changes in the parasite, a blood film must be prepared. A thin blood film was air-dried, fixed with methanol, and allowed to dry before staining. […] Light microscopy analysis was carried out to evaluate the inhibitory effect of compounds at different concentrations against Pf3D7 and PfRKL-9.
SYBR green I based fluorescence assay was performed to measure the growth inhibition effect of the 26 compounds and further dose dependent assay against Pf3D7, and PfRKL-9 (Indian field strain, source- NIMR, New Delhi, India) was carried out at different concentrations. […] Parasitized erythrocytes were treated with different concentrations of compounds ranging from 1 µM to 10 µM, whereas DMSO worked as a control. Triplicate wells of parasitized erythrocytes treated with compounds were seeded in 96 well microtiter plate following incubation at 37 °C for one cycle of parasite growth. […] Growth inhibition (%) was calculated as follows: % Inhibition = [1 − % Parasitemia (Treatment)/% Parasitemia (Control)] *100. Data were expressed as mean ± SD.

[2] = test system: chloroquine resistant strain PfRKL-9; test: SYBR green I based fluorescence growth inhibition assay, PfRKL-9; format: cell-based; details: Plasmodium falciparum, synchronized late trophozoite parasites, triplicate, mean ± SD, read-out: IC50 (µM) against PfRKL-9
Protocol: as §1, §2
SYBR green I based fluorescence assay was performed to measure the growth inhibition effect of the 26 compounds and further dose dependent assay against Pf3D7, and PfRKL-9 (Indian field strain, source- NIMR, New Delhi, India) was carried out at different concentrations. In brief, Pf3D7 and PfRKL-9 parasitized erythrocytes (trophozoite stage with 1% parasitemia) were diluted with noninfected erythrocytes at a constant 2% hematocrit in culture medium. Parasitized erythrocytes were treated with different concentrations of compounds ranging from 1 µM to 10 µM, whereas DMSO worked as a control. Triplicate wells of parasitized erythrocytes treated with compounds were seeded in 96 well microtiter plate following incubation at 37 °C for one cycle of parasite growth. […] Growth inhibition (%) was calculated as follows: % Inhibition = [1 − % Parasitemia (Treatment)/% Parasitemia (Control)] *100. Data were expressed as mean ± SD.

[3] = test system: embryonic kidney cell lines, HEK-293
Protocol: Cytotoxicity against human embryonic kidney cell line (ATCC) was determined using MTT dye[35]. In order to measuring the cytotoxicity of the compounds we used MTT dye to detect live/dead cells. […] cells were stored at 37 °C, 5% CO2 in […] sterile culture flasks (Corning) in complete Dulbecco's Modified Eagle Medium (DMEM) culture medium (a) supplemented with 5% Fetal Bovine Serum (FBS), gentamicin ([…]), with changing the medium thrice a week. The monolayers were washed, counted, diluted in complete medium, distributed in 96-well microtiter plates (5000 cells/well), followed by incubation for another 24 h at 37 °C. The test compounds and DMSO were added in triplicate. After a 48 h incubation at 37 °C, the supernatant was removed and 100 µL of MTT solution in complete DMEM was added to each well, followed by 2 h incubation at 37 °C. The culture plates were read in a spectrophotometer (Tecan infinite M200, nanoquant, UK) with a 490 nm filter, and the cytotoxic concentrations were determined based on a dose response curve.

human RBCs = test: Hemolytic activity on human RBCs; format: cell-based; details: 0.5-20 µM, 10% (v/v) RBC suspension, 1 h, absorbance at 415 nm
Protocol: Effect of compounds on human RBCs was checked with the help of spectrophotometry by measuring the lysis of human red blood cells (hRBCs). Compounds were tested at 0.5, 1, 5, 10 and 20 μM concentrations with 10% (v/v) RBCs suspension for 1 h and observed the percentage of RBCs lysis by compounds 7, 16, 17, 18 and 1.
Human RBCs were from Rotary Blood Bank, Tughlakabad Institutional Area, New Delhi, India. Effect of compounds on RBCs was checked by hemolytic assay. In brief, RBCs suspension with 10% (v/v) washed with 1 × Phosphate-buffered saline (PBS) (pH 7.4) and again resuspended in 1 × PBS. RBCs suspension was incubated with compounds 7, 16, 17, 18 and 1 at different concentrations (0.5, 1, 5, 10 and 20 μM) for 1 h at 37 °C. Samples were centrifuged and supernatant was taken for absorbance at 415 nm. Triton X-100 with 1% (v/v) was used as a positive control. Experiment was done in triplicate.

[4] = test system: Mitochondrial membrane potential of the malaria parasites; test: JC-1 mitochondrial membrane potential assay; format: cell-based, Plasmodium falciparum; details: parasites treated with IC50 concentration for 3 h; untreated control 7.04 ± 1.30
Excerpt: Mitochondrial membrane potential is a marker of mitochondria’s functional status. Modification in mitochondrial membrane potential leading to mitochondrial dysfunction triggers cell death[25],[26]. Mitochondrial dysfunction was detected by using membrane permeant JC-1 dye. JC-1 is a cationic probe, due to electronegative environment inside the functionally active mitochondria with high Δψm, it aggregates in energised mitochondria and gives red color fluorescence at 590 nm, but in case of low Δψm (depolarized state), JC-1 remain in monomeric form and gives green color fluorescence at […]. Decreased ratio of red/green fluorescence intensity of compound treated sample as compared to untreated control indicates depolarized mitochondrial membrane[27],[28]. The damage to the parasite's mitochondria after treatment with compounds 7, 16, 17, 18 and 1 was measured according to the method reported previously. Because of lipophilic nature of the JC-1, it is cell permeable and emits a green signal (525 nm) in the cytoplasm, but the high transmembrane potential of functional mitochondria causes it to aggregate and emit a red signal (590 nm). […]. Mitochondrial membrane potential of the malaria parasites was determined by using MitoProbe™ JC-1 assay as described previously. In brief, trophozoite stage parasites (10–12% parasitemia) were treated with IC50 concentration of compounds 7, 16, 17, 18 and 1 for 3 h at 37 °C in the CO2 incubator. Samples were washed with 1 × PBS by centrifugation at 500 × g for 2 min at RT. Freshly prepared JC-1 dye was added to each sample with working concentration of 5 µg/mL. Incubation was done for 30 min at 37 °C in a CO2 incubator. Cells were washed twice with 1 × PBS. Spectrofluorometer was used to observe mitochondrial membrane potential by measuring fluoroscence intensities from the parasite lysate at wavelength of excitation (520 nm) and emission (590 nm) respectively. In vivo cell imaging was done with the help of Olympus fluoview 3000 confocal microscopy. Live cell imaging was observed under a 100X objective (oil immersion) and band pass filter at 355–460 nm. Experiments were repeated thrice and only representative figures are shown (Fig. 6).

P. berghei ANKA = test: In vivo antiplasmodial activity in P. berghei ANKA infected BALB/c mice; design: species or system Plasmodium berghei ANKA
Protocol: In vivo antiplasmodial efficacy of 7 was assessed in P. berghei ANKA infected BALB/c mice model. Compound dose was given intra-peritoneal injections for seven days in a row. To check the parasitemia, thin blood smears were made from P. berghei ANKA infected mice for up to seven consecutive days. […] Compound 7 was able to effectively reduce the parasite load compared to a control group of untreated mice for seven consecutive days post infection.
To make relevant inferences, statistical analyses were carried out on the in vivo data using Graphpad Prism data sheets.
Antiplasmodial activity of hit compound 7 was investigated in mice model with the help of protocol described previously. Briefly, intra-peritoneal injection of 1 × 10^7 Plasmodium berghei ANKA infected erythrocytes diluted with sterile 1 × PBS was injected into mice. In each group five mice were taken. Thin smears were made from the tail blood of mice to check the infection. Post infection, P. berghei infected mice administered intra-peritoneally with compound 7 with the dose of 50 mg/kg body weight, daily for seven consecutive days post infection. Mice treated with 1xPBS were kept as vehicle control. […] Data were calculated and presented as percentage increase in the parasitemia. All animal experiments were carried out in accordance with the standard approved procedures. […]

SMILES | IC50 [1] | growth inhibition against Pf3D7 (in words) [1] | IC50 [2] | Cell survival (%) at 500 µM ([3]; HEK-293 cells, MTT, 48 h incubation) | lysis of human RBCs (in words) (human RBCs) | JC-1 red/green ratio [4] | percentage parasitemia on the seventh day (P. berghei ANKA; 50 mg/kg intra-peritoneal, seven days, control 25%) | Mean survival time (MST) (P. berghei ANKA; 50 mg/kg, observed 21 days post-infection, control MST = 10 days) | Cell survival (%) at 500 µM ([3]; human, 48 h)
CC(=O)OC[C@H]1O[C@@H](SC[C@@H]2O[C@@H](n3cnc4c(NC(c5ccccc5)(c5ccccc5)c5ccccc5)ncnc43)[C@@H]3OC(C)(C)O[C@@H]32)[C@H](OC(C)=O)[C@@H](OC(C)=O)[C@@H]1OC(C)=O [Compound 7, 1-[2’,3’-O-isopropylidene-5’-S-(2,3,4,6-tetra-O-acetyl-β-D-glucopyranosyl)-5’-thio-α-L-lyxofuranosyl]-N-trityl-adenine] | 0.92 ± 1.8 µM | significant growth inhibition in a dose dependent manner | 2.1 ± 1.3 µM | 55% | no significant lysis | 5.26 ± 1.13 | 10% | 14 days | 
CC(=O)OC[C@H]1O[C@@H](SC[C@@H]2[C@@H](O[Si](C)(C)C(C)(C)C)[C@H](n3ccc(=O)[nH]c3=O)O[C@@H]2CO[Si](C)(C)C(C)(C)C)[C@H](OC(C)=O)[C@@H](OC(C)=O)[C@H]1OC(C)=O [Compound 16, 1-[3’-Deoxy-3’-C-(-2,3,4,6-tetra-O-acetyl-β-D-galactopyranosyl-sulfanylmethyl)-2’,5’-di-O-(tert-butyldimethylsilyl)-β-D-xylofuranosyl]-uracil] | 1.78 ± 1.3 µM | significant growth inhibition in a dose dependent manner | 9.55 ± 1.7 µM |  | no significant lysis | 4.98 ± 1.77 |  |  | 52%
CC(=O)O[C@@H]1[C@@H](OC(C)=O)[C@H](SC[C@@H]2[C@@H](O[Si](C)(C)C(C)(C)C)[C@H](n3ccc(=O)[nH]c3=O)O[C@@H]2CO[Si](C)(C)C(C)(C)C)OC[C@H]1OC(C)=O [Compound 17, 1-[3’-Deoxy-3’-C-(-2,3,4-tri-O-acetyl-β-D-xylopyranosyl-sulfanylmethyl)-2’,5’-di-O-(tert-butyldimethylsilyl)-β-D-xylofuranosyl]-uracil] | 1.33 ± 1.07 µM | significant growth inhibition in a dose dependent manner | 1.84 ± 1.06 µM |  | no significant lysis | 6.28 ± 1.55 |  |  | 51%
CC(=O)N[C@@H]1[C@@H](OC(C)=O)[C@H](OC(C)=O)[C@@H](COC(C)=O)O[C@H]1SC[C@@H]1[C@@H](O[Si](C)(C)C(C)(C)C)[C@H](n2cc(C)c(=O)[nH]c2=O)O[C@@H]1CO[Si](C)(C)C(C)(C)C [Compound 18, 1-[3’-Deoxy-3’-C-((2-acetamido-3,4,6-tri-O-acetyl-β-D-glucopyranosylthio)methyl)-2’,5’-di-O-(tert-butyldimethylsilyl)-β-D-xylofuranosyl]-5-methyluracil] | 1.15 ± 1.5 µM | significant growth inhibition in a dose dependent manner | 2.21 ± 1.3 µM |  | no significant lysis | 5.53 ± 1.40 |  |  | 60%
